How the values were obtained:
Test in all cases: area under dose-response curve of surviving fraction (unscaled, Aref=0) (surviving fraction x log10(nM)); higher = more resistant
Settings in all cases: exposure time: 5 days; dose range 0.5-1000 nM
[1] = compound: Nc1ccn([C@@H]2O[C@H](CO)[C@@H](O)C2(F)F)c(=O)n1 [GEMCITABINE]
Outline: (§1)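 Three screens per tumour cell line were run in 384-well plates at eight inhibitor concentrations from 0.5 to 1000 nM over five days. Surviving fractions, from CellTiter-Glo luminescence normalised to DMSO-only wells, were fitted with 3-parameter logistic curves in the drc R package. The reported area under the curve is the unscaled activity area. It spans log10 dose, and Aref is 0.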

[2] = compound: Cc1nc(Nc2n[nH]c3c2CN(C(=O)N[C@H](CN(C)C)c2ccccc2)C3(C)C)c2sccc2n1
Outline: as §1

[3] = compound: O=C(NOCC1CC1)c1ccc(F)c(F)c1Nc1ccc(I)cc1Cl
Outline: as §1

[4] = compound: COc1cc([C@@H]2c3cc4c(cc3[C@@H](O[C@@H]3O[C@@H]5CO[C@@H](C)O[C@H]5[C@H](O)[C@H]3O)[C@H]3COC(=O)[C@H]23)OCO4)cc(OC)c1O [ETOPOSIDE]
Outline: as §1

[5] = compound: CCN(CC)CCNC(=O)c1c(C)[nH]c(/C=C2\C(=O)Nc3ccc(F)cc32)c1C [SUNITINIB]
Outline: as §1

[6] = compound: C#Cc1cccc(Nc2ncnc3cc(OCCOC)c(OCCOC)cc23)c1 [ERLOTINIB]
Outline: as §1

[7] = compound: CO[C@H]1C[C@@H]2CC[C@@H](C)[C@@](O)(O2)C(=O)C(=O)N2CCCC[C@H]2C(=O)O[C@H]([C@H](C)C[C@@H]2CC[C@@H](OCCO)[C@H](OC)C2)CC(=O)[C@H](C)/C=C(\C)[C@@H](O)[C@@H](OC)C(=O)[C@H](C)C[C@H](C)/C=C/C=C/C=C/1C [EVEROLIMUS]
Outline: as §1

[8] = compound: NC1(c2ccc(-c3nc4ccn5c(=O)[nH]nc5c4cc3-c3ccccc3)cc2)CCC1 [MK2206]
Outline: as §1

[9] = compound: CCCS(=O)(=O)Nc1ccc(F)c(C(=O)c2c[nH]c3ncc(Cl)cc23)c1F [PLX-4720]
Outline: as §1

[10] = compound: CN(Cc1cnc2nc(N)nc(N)c2n1)c1ccc(C(=O)N[C@@H](CCC(=O)O)C(=O)O)cc1 [METHOTREXATE]
Outline: as §1

[11] = compound: CCC1=C[C@@H]2CN(C1)Cc1c([nH]c3ccccc13)[C@@](C(=O)OC)(c1cc3c(cc1OC)N(C)[C@H]1[C@@](O)(C(=O)OC)[C@H](OC(C)=O)[C@]4(CC)C=CCN5CC[C@]31[C@@H]54)C2 [VINORELBINE]
Outline: as §1

[12] = compound: COc1cc(CCc2cc(NC(=O)c3ccc(N4CC(C)NC(C)C4)cc3)n[nH]2)cc(OC)c1 [AZD4547]
Outline: as §1

[13] = compound: O=C(O)CC[C@H]1CC[C@@](c2cc(F)ccc2F)(S(=O)(=O)c2ccc(Cl)cc2)CC1 [MK0752]
Outline: as §1

Test System	area under dose-response curve [1]	area under dose-response curve [2]	area under dose-response curve [3]	area under dose-response curve [4]	area under dose-response curve [5]	area under dose-response curve [6]	area under dose-response curve [7]	area under dose-response curve [8]	area under dose-response curve [9]	area under dose-response curve [10]	area under dose-response curve [11]	area under dose-response curve [12]	area under dose-response curve [13]
ASKA SYNOVIAL	1.03	2.66	3.28	2.38	2.07	3.77	2.28	2.71	3.2	3.77	1.36	–	–
BT20 BREAST	1.55	2.78	3.11	2.9	2.95	3.67	1.35	3.76	3	3.51	1.54	3.58	–
BT549 BREAST	1.03	1	–	2.79	3.02	3.57	–	2.87	3.1	1.9	1.62	3.46	–
CME SYNOVIAL	1.25	3.07	3.27	2.46	2.09	–	–	4.03	3.17	2.37	2.33	–	4.45
HCC202 BREAST	–	2.16	4.68	–	3.12	–	–	–	3.8	–	1.85	3.81	–
HCC1806 BREAST	0.258	0.463	–	2.5	2.29	–	2.74	–	2.86	1.55	1.33	3.6	3.93
HMLE3 BREAST	1.1	0.944	2.57	2.53	2.08	–	2.01	2.97	2.8	2.58	1.81	2.25	–
HMT3552 BREAST	2.53	–	–	–	–	3.18	1.98	3.05	–	2.25	–	–	–
HU09 BONE	0.594	1.37	–	2.6	1.9	–	–	2.59	3.1	2.42	1.47	2.88	3.54
JURKAT HAEMATOPOIETIC AND LYMPHOID TISSUE	1.01	0.653	–	2.15	3.06	–	1.76	2.74	3.23	1.35	1.24	–	3.4
MDAMB157 BREAST	–	1.55	2.81	2.68	2.52	3.29	2.25	–	3.07	3.15	1.41	2.38	–
MG63 BONE	1.03	1.34	3.12	3.13	2.72	–	2.17	3.13	3.07	2.15	1.86	2.57	–
NCIH441 LUNG	0.954	1.92	2.98	2.86	3.25	–	–	3.53	3.08	–	2.25	–	3.43
NOS1 BONE	2.31	1.98	–	–	1.78	–	1.75	2.74	3.29	3.88	1.92	2.71	–
OSHN BONE	–	1.67	3.24	3	3.18	3.68	3.41	3.58	3.06	1.28	1.83	3.57	–
SAOS2 BONE	0.983	1.41	3.22	3.15	2.75	–	3.1	3.03	3.06	–	1.6	–	3.89
SCC36 HEADNECK	2.34	0.887	–	–	2.53	2.92	3.13	2.91	2.88	2.83	1.6	–	–
SCC47 HEADNECK	2.22	1.99	2.91	3.17	3.14	–	3.2	3.26	3.12	2.96	1.84	3.44	–
SCC90 HEADNECK	1.46	1.7	2.18	3.67	3.19	2.89	2.09	3.03	3.12	2.81	1.52	3.57	–
SG27 HEADNECK	3.22	1.72	–	3.45	3.67	3.58	3.13	–	2.98	–	3.81	2.8	–
SG28 HEADNECK	–	2.12	2.72	3.66	2.12	–	–	–	2.51	–	2.47	–	3.56
SG31 HEADNECK	2.51	2.15	2.78	–	2.47	–	2.18	–	2.73	3.94	2.07	3.1	3.35
SIHA CERVIX	2.4	1.55	2.76	–	3.13	–	2.23	3.01	3.18	2.99	2.25	3.02	3.79
SUM149 BREAST	0.539	1.13	2.25	2.41	2.12	2.76	1.67	3.19	–	2.98	1.46	–	–
SUM159 BREAST	1.68	2.39	2.75	2.91	3.06	3.56	2.88	3.58	–	3.2	1.98	3.84	–
VP229 BREAST	1.97	1.92	–	3.78	2.41	2.92	1.96	–	3.1	3.77	2	–	–
ZR751 BREAST	2.02	1.83	2.56	–	3.62	–	1.57	1.96	2.73	2.86	1.87	3.05	3.79

— the supplement of paper PMC6045584
